Experiments:
[1] = system: A53T-αSyn PD patient iPSC-derived DA neurons; assay: Immunofluorescence / fractionation western blot in A53T-αSyn iPSC-derived (DA) neurons; format: cell-based, human; conditions: 1 µM, five days
Excerpt: PD iPS cells lines (αSyn A53T, NN0004337, donor) and its isogenic corrected control line (NN0004344) were obtained from RUCDR Infinite Biologics. The iPS cells were differentiated into dopaminergic neuron-enriched neuronal culture with the protocol described previously. Briefly, iPS cell colonies were disassociated with accutase (Invitrogen), plated onto 6-well plates pre-coated with 2.5% Matrigel (BD Biosciences) and allowed to reach 80% confluence in mTeSR medium (Stem Cell Technology). For the first 10 days, cells were treated with SB431542 (10 µM; Tocris Bioscience) and Noggin (100 ng/ml) in Neural Media (NM) with FGF2 ([…]) and EGF ([…]). NM media contained: Neurobasal and DMEM/F12 (1:1), B-27 Supplement Minus Vitamin A (50×, Invitrogen), N2 Supplement (100X, Invitrogen), GlutaMAX (Invitrogen, 100×), 100 units/ml penicillin and 100 µg/ml streptomycin (Fisher); for the next 4 days, cells were treated with human recombinant Sonic hedgehog (SHH, 200 ng/ml) in neuronal differentiation medium. Neuronal differentiation medium contained Neurobasal and DMEM/F12 (1:3), B27, N2, GlutaMax and PS. In the following 3 days, cells were switched to BDNF (20 ng/ml), ascorbic acid (200 µM, Sigma-Alderich), SHH (200 ng/ml), and FGF8b (100 ng/ml) in neuronal differentiation medium. Thereafter, cells were treated with BDNF, ascorbic acid, GDNF (10 ng/ml), TGF-b (1 ng/ml), and cAMP ([…], Sigma-Aldrich). All growth factors were purchased from Pepro Tech (Rocky Hill, NJ, USA). After 20 days of induction, neurons were treated daily with TAT or CS2 peptides at 1µM and were fixed for immunostaining at 26 days of induction. The imaging was observed by confocal microscope (Fluoview FV3000, Olympus).
Cells were grown on coverslips, fixed with 4% paraformaldehyde for 20 min at room temperature, permeabilized with 0.1% Triton X-100 in PBS, and blocked with 2% normal goat serum. The cells were incubated with the indicated primary antibodies overnight at 4℃. After washing with PBS, the cells were incubated with Alexa Fluor 488/568 or 405/568 secondary antibody (1:500; Thermo Fisher Scientific) for 2 h at room temperature. The nuclei were counterstained with DAPI (1:10000; Sigma-Aldrich). Images of the staining were acquired using a Fluoview FV3000 confocal microscope (Olympus).
Fig. 6 CS2 treatment is protective in DA neurons derived from PD patient iPSCs. (A) Representative images of MitoTracker staining and ClpP-αSyn PLA in A53T αSyn or isogenic control (ISO) iPSCs-derived neurons (scale bar = 30 μm). (B) Representative images of ClpP-αSyn PLA in A53T αSyn or ISO iPSCs-derived neurons, which were treated with TAT or CS2 peptide (scale bar = 30 μm). […] (C) Representative blots of co-immunoprecipitation assay assessing ClpP-αSyn in A53T αSyn or ISO iPSCs-derived neurons, which were treated with TAT or CS2 peptide. […] (D) Representative images of ClpP staining in […] positive (TH^+) iPSCs-derived DA neurons treated with TAT or CS2 peptide (scale bar = 30 μm). […] (E) Representative images of pS129-αSyn (pS129) staining in TH^+ iPSCs-derived DA neurons treated with TAT or CS2 peptide (scale bar = 30 μm). […] (F) Representative images of PSD95, Synapsin1 (SYN1) and MAP2 staining in iPSCs-derived neurons treated with TAT or CS2 peptide (scale bar = 30 μm).
(C) Detergent soluble and insoluble fractions were extracted from iPSC-derived neurons and subjected for western blot analyses. Shown are the representative blots of 3 independent experiments.

[2] = system: wild-type littermates; assay: Observed effects on wild-type littermates; format: in vivo, mouse; conditions: 3 mg/kg/day s.c.; WT littermates
Method: C57BL/6 N-Tg (Thy1-SNCA)15Mjff/J (JAX: 017682) breeders (C57Bl/6NJ genetic background) were purchased from Jackson Laboratories. The mice were mated, bred, and genotyped in the animal facility of Case Western Reserve University. All mice were maintained at a 12-hour light/dark cycle (on 6 am, off 6 pm). All randomization and peptide treatments in mThy1-hSNCA mice were prepared by an experimenter not associated with the behavioral and neuropathology analysis. Only male mice were used in the study. mThy1-hSNCA transgenic mice and their age-matched WT littermates were implanted with a 28-day subcutaneous osmotic pump (Alzet, Cupertino CA, Model 2004) containing either TAT control peptide or CS2 peptide, which delivered the peptides at indicated rate (1 or 3 or 10 mg/kg/day). The pump was replaced once every four weeks. All mice were sacrificed at age of 10-month for neuropathology assessment.
All behavioral analyses were conducted by an experimenter who was blinded to the genotypes and treatment groups. All mice were subjected to a series of behavioral measurements to monitor locomotor activity (open field test), spontaneous spatial working memory (Y-maze test), and motor coordination (Rotarod test).

[3] = A53T-αSyn iPSC neurons, n = 6–7

## CC(C)[C@H](NC(=O)CNC(=O)CNC(=O)CCCCCNC(=O)[C@H](CCCNC(=N)N)NC(=O)[C@H](CCCNC(=N)N)NC(=O)[C@H](CCCNC(=N)N)NC(=O)[C@H](CCC(N)=O)NC(=O)[C@H](CCCNC(=N)N)NC(=O)[C@H](CCCNC(=N)N)NC(=O)[C@H](CCCCN)NC(=O)[C@H](CCCCN)NC(=O)[C@H](CCCNC(=N)N)NC(=O)CNC(=O)[C@@H](N)Cc1ccc(O)cc1)C(=O)N[C@H](C(=O)N[C@H](C(=O)N[C@@H](C)C(=O)O)[C@@H](C)O)C(C)C [CS2, TAT-C6-GGVVTA]
[1]; 3 independent experiments
  insoluble αSyn accumulation, iPSC neurons: reduced the expression of pS129-αSyn and the accumulation of insoluble αSyn
[1]; n = 5–7
  pS129-αSyn expression, iPSC DA neurons: reduced the expression of pS129-αSyn
[1]; n = 6
  ClpP protein level in TH+ DA neurons: significantly restored ClpP protein levels
[1]; [3]
  PSD95 density: restored the density of both PSD95 and Synapsin1
  Synapsin1 density: restored the density of both PSD95 and Synapsin1
[2]
  effects on wild-type littermates: no observable effects on wild-type littermates

Source: publication PMC12751141, “Disrupting α-Synuclein–ClpP interaction restores mitochondrial function and attenuates neuropathology in Parkinson’s disease models” (Molecular Neurodegeneration, 2025)
